Laboratory results taken from patent US20260355196A1, “INHIBITORS AND DEGRADERS OF PIP4K PROTEIN” (Larkspur Biosciences, Inc., priority 2023, published 2026).

Each molecule was assayed against T1, PIP4K2C (Homo sapiens, UniProt Q8TBX8) (assay: Enzyme Binding Assay (KINOMEscan): active site-directed competition binding to an immobilized ligand). Conditions: 11-point dose response, duplicate, top concentration 5 micromolar; read-out: Pip4k2c Kd: IC50.
T1 sequence (Q8TBX8 1-421): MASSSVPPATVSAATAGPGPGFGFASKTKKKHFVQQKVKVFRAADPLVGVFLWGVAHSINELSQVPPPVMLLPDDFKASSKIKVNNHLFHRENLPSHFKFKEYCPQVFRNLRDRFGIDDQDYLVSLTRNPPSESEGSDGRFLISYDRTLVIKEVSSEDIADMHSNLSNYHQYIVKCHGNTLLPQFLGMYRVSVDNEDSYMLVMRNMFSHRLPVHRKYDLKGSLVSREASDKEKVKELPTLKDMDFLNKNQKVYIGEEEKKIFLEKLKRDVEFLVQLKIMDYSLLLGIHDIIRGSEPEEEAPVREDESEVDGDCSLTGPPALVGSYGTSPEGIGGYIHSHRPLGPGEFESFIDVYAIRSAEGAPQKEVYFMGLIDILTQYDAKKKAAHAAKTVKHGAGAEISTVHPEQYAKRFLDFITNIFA
Design: purchased Eurofins DiscoverX, San Diego, CA 87-0007-1094
Procedure, shortened: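 Active site-directed competition binding against an immobilized ligand. 11-point dose-response in duplicate, top concentration 5 micromolar; IC50 from a Hill equation fitted by the Levenberg-Marquardt algorithm.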

IC50, < 500 nM:
NC(=O)[C@H]1CC[C@H](Nc2ncc(F)c(-c3cccc(C4(O)CCC4)n3)n2)CC1 [Compound 620, trans-4-((5-fluoro-4-(6-(1-hydroxycyclobutyl)pyridin-2-yl)pyrimidin-2-yl)amino)cyclohexane-1-carboxamide]
NC(=O)[C@H]1CC[C@H](Nc2ncc(F)c(-c3cccc(N4CCCOC4=O)n3)n2)CC1 [Compound 621, trans-4-((5-fluoro-4-(6-(2-oxo-1,3-oxazinan-3-yl)pyridin-2-yl)pyrimidin-2-yl)amino)cyclohexane-1-carboxamide]
NC(=O)[C@H]1CC[C@H](Nc2ncc(F)c(-c3ccnc(N4CCCOC4=O)c3)n2)CC1 [Compound 622, trans-4-[[5-fluoro-4-[2-(2-oxo-1,3-oxazinan-3-yl)-4-pyridyl]pyrimidin-2-yl]amino]cyclohexanecarboxamide]
NC(=O)[C@H]1CC[C@H](Nc2ncc(F)c(-c3ccnc(-n4ccccc4=O)c3)n2)CC1 [Compound 623, trans-4-((5-fluoro-4-(2-oxo-2H-[1,2′-bipyridin]-4′-yl)pyrimidin-2-yl)amino)cyclohexane-1-carboxamide]
CC(=O)N[C@H]1CC[C@H](Nc2ncc(F)c(-c3cccc(N4CCCOC4=O)n3)n2)CC1 [Compound 624, N-(trans-4-((5-fluoro-4-(6-(2-oxo-1,3-oxazinan-3-yl)pyridin-2-yl)pyrimidin-2-yl)amino)cyclohexyl)acetamide]
CC(=O)N[C@H]1CC[C@H](Nc2ncc(F)c(-c3cccc(N4CCCCC4=O)n3)n2)CC1 [Compound 625, N-(trans-4-((5-fluoro-4-(6-(2-oxopiperidin-1-yl)pyridin-2-yl)pyrimidin-2-yl)amino)cyclohexyl) acetamide]
CC(=O)N[C@H]1CC[C@H](Nc2ncc(F)c(-c3cccc(-n4ccccc4=O)n3)n2)CC1 [Compound 626, trans-N-(4-((5-fluoro-4-(2-oxo-2H-[1,2′-bipyridin]-6′-yl)pyrimidin-2-yl)amino)cyclohexyl)acetamide]
CC(=O)N1CCC(Nc2ncc(F)c(-c3ccnc(N4CCOCC4=O)c3)n2)CC1 [Compound 628, 4-(4-(2-((1-acetylpiperidin-4-yl)amino)-5-fluoropyrimidin-4-yl)pyridin-2-yl)morpholin-3-one]
CC(=O)N1CCC(Nc2ncc(F)c(-c3cccc(N4CCOCC4=O)n3)n2)CC1 [Compound 630, 4-(6-(2-((1-acetylpiperidin-4-yl)amino)-5-fluoropyrimidin-4-yl)pyridin-2-yl)morpholin-3-one]
CC(=O)N[C@H]1CC[C@H](Nc2ncc(F)c(-c3cccc(C4CCC(=O)NC4)c3)n2)CC1 (stereo partly drawn) [Compound 631, N-(trans-4-((5-fluoro-4-(3-(6-oxopiperidin-3-yl)phenyl)pyrimidin-2-yl)amino)cyclohexyl)acetamide]
